Test results from publication PMC11995724, “Antibiotic target discovery by integrated phenotypic and activity-based profiling of electrophilic fragments” (Cell chemical biology, 2025).

assay: in vitro; conditions: human, hek293t cells

Structure (SMILES)	viability at 48 h, 25 µM
N#CC(=Cc1ccc(N2CCCC2)cc1)C(=O)N1CCC(C(N)=O)CC1 [9-K12, 1-(2-cyano-2-{[4-(pyrrolidin-1-yl)phenyl]methylidene}acetyl)piperidine-4-carboxamide]	108%
COc1cc(C=C(C#N)C(N)=O)cc(OC)c1OC [9-K13, 2-cyano-3-(3,4,5-trimethoxyphenyl)prop-2-enamide]	129%
N#CC(=Cc1cccnc1)C(=O)NCCc1ccccc1 [9-K14, 2-cyano-N-(2-phenylethyl)-3-(pyridin-3-yl)prop-2-enamide]	89.3%
Cc1ccc(C=C(C#N)C(=O)NC2CC2)s1 [9-K15, 2-cyano-N-cyclopropyl-3-(5-methylthiophen-2-yl)prop-2-enamide]	126%
N#CC(=Cc1ccc(-c2ccc(Cl)cc2)o1)C(=O)NC1CC1 [9-K16, 3-[5-(4-chlorophenyl)furan-2-yl]-2-cyano-N-cyclopropylprop-2-enamide]	91%
Cc1ccc(NC(=O)C(C#N)=Cc2ccccc2OC(F)F)c(C)c1 [9-K17, 2-cyano-3-[2-(difluoromethoxy)phenyl]-N-(2,4-dimethylphenyl)prop-2-enamide]	94.9%
CC1=C(C#N)C(=O)N(C)C(=O)C1=Cc1ccc(-c2ccccc2Cl)o1 [9-K18, 5-{[5-(2-chlorophenyl)furan-2-yl]methylidene}-1,4-dimethyl-2,6-dioxo-1,2,5,6-tetrahydropyridine-3-carbonitrile]	126%
N#CC(=Cc1ccccc1OC(F)F)C(=O)Nc1nccs1 [9-K19, 2-cyano-3-[2-(difluoromethoxy)phenyl]-N-(1,3-thiazol-2-yl)prop-2-enamide]	119%
N#CC(=Cc1ccc2c(c1)OCCO2)C(=O)Nc1ccc(F)cc1 [9-K20, 2-cyano-3-(2,3-dihydro-1,4-benzodioxin-6-yl)-N-(4-fluorophenyl)prop-2-enamide]	114%
N#CC(=Cc1ccc([N+](=O)[O-])cc1)C(=O)Nc1cccc2ncccc12 [9-K21, 2-cyano-3-(4-nitrophenyl)-N-(quinolin-5-yl)prop-2-enamide]	114%
CCOc1cc(C=C(C#N)C(=O)Nc2nccs2)cc(Cl)c1O [9-K22, 3-(3-chloro-5-ethoxy-4-hydroxyphenyl)-2-cyano-N-(1,3-thiazol-2-yl)prop-2-enamide]	110%
COc1ccc(NC(=O)C(C#N)=Cc2cnc3c(C)cccn23)cc1 [9-L03, 2-cyano-N-(4-methoxyphenyl)-3-{8-methylimidazo[1,2-a]pyridin-3-yl}prop-2-enamide]	111%
CCCCNC(=O)C(C#N)=Cc1c[nH]nn1 [9-L04, N-butyl-2-cyano-3-(1H-1,2,3-triazol-4-yl)prop-2-enamide]	116%
CSc1ccc(C=C(C#N)C(=O)Nc2ccc3c(c2)OCCO3)cc1 [9-L05, 2-cyano-N-(2,3-dihydro-1,4-benzodioxin-6-yl)-3-[4-(methylsulfanyl)phenyl]prop-2-enamide]	114%
C=CCNC(=O)C(C#N)=Cc1ccc2c(c1)OCCO2 [9-L06, 2-cyano-3-(2,3-dihydro-1,4-benzodioxin-6-yl)-N-(prop-2-en-1-yl)prop-2-enamide]	86.7%
C=CCNC(=O)C(C#N)=Cc1c(C)nn(-c2ccc(F)cc2)c1Cl [9-L07, 3-[5-chloro-1-(4-fluorophenyl)-3-methyl-1H-pyrazol-4-yl]-2-cyano-N-(prop-2-en-1-yl)prop-2-enamide]	91.8%
N#CC(=Cc1cccs1)C(=O)NCc1ccco1 [9-L08, 2-cyano-N-[(furan-2-yl)methyl]-3-(thiophen-2-yl)prop-2-enamide]	110%
N#CC(=Cc1ccco1)C(=O)NC1CCN(c2ccc(F)cc2F)C1 (stereo not shown) [9-L09, 2-cyano-N-[1-(2,4-difluorophenyl)pyrrolidin-3-yl]-3-(furan-2-yl)prop-2-enamide]	111%
C=CCNC(=O)C(C#N)=Cc1cccc2ccccc12 [9-L10, 2-cyano-3-(naphthalen-1-yl)-N-(prop-2-en-1-yl)prop-2-enamide]	96.5%
N#CC(=Cc1cccs1)C(=O)Nc1ccccc1Cl [9-L11, N-(2-chlorophenyl)-2-cyano-3-(thiophen-2-yl)prop-2-enamide]	112%
N#CC(=Cc1ccc(OC(F)F)c(Cl)c1)C(N)=O [9-L12, 3-[3-chloro-4-(difluoromethoxy)phenyl]-2-cyanoprop-2-enamide]	106%
N#CC(=Cc1cccc(Cl)c1)C(=O)NCc1ccccc1 [9-L13, N-benzyl-3-(3-chlorophenyl)-2-cyanoprop-2-enamide]	39.5%
CNC(=O)C(C#N)=Cc1cccc(-c2ccncc2)c1 [9-L14, 2-cyano-N-methyl-3-[3-(pyridin-4-yl)phenyl]prop-2-enamide]	108%
Cn1cc(C=C(C#N)C(=O)Nc2ccccc2F)c(-c2ccncc2)n1 [9-L15, 2-cyano-N-(2-fluorophenyl)-3-[1-methyl-3-(pyridin-4-yl)-1H-pyrazol-4-yl]prop-2-enamide]	130%
Cn1cc(C=C(C#N)C(=O)NC2CCCC2)c(-c2ccncc2)n1 [9-L16, 2-cyano-N-cyclopentyl-3-[1-methyl-3-(pyridin-4-yl)-1H-pyrazol-4-yl]prop-2-enamide]	119%

Structure (SMILES)	viability at 48 h, 25 µM
COc1ccccc1C=CC=C(C#N)C(=O)Nc1ccccn1 [9-L17, 2-cyano-5-(2-methoxyphenyl)-N-(pyridin-2-yl)penta-2,4-dienamide]	91.4%
CC(=O)N(C)c1cccc(NC(=O)C(C#N)=Cc2ccco2)c1 [9-L18, 2-cyano-3-(furan-2-yl)-N-[3-(N-methylacetamido)phenyl]prop-2-enamide]	104%
N#CC1=C(N2CCOCC2)SC(c2cccc([N+](=O)[O-])c2)NC1=O (stereo not shown) [9-L19, 6-(morpholin-4-yl)-2-(3-nitrophenyl)-4-oxo-3,4-dihydro-2H-1,3-thiazine-5-carbonitrile]	129%
CC(C)Oc1ccccc1C=C(C#N)C(=O)Nc1ccc(Cl)cc1 [9-L20, N-(4-chlorophenyl)-2-cyano-3-[2-(propan-2-yloxy)phenyl]prop-2-enamide]	89.4%
CC(NC(=O)C(C#N)=Cc1ccc(C(F)(F)F)cc1)c1ccccc1 (stereo not shown) [9-L21, 2-cyano-N-(1-phenylethyl)-3-[4-(trifluoromethyl)phenyl]prop-2-enamide]	2.11%
CC(O)=C(C#N)C(=O)Nc1ccc(-c2ccccc2Cl)c(Cl)c1 [9-L22, 2-cyano-N-{2,2'-dichloro-[1,1'-biphenyl]-4-yl}-3-hydroxybut-2-enamide]	117%
N#CC(=Cc1cnn(Cc2ccccc2)c1)C(=O)Nc1nccs1 [9-M03, 3-(1-benzyl-1H-pyrazol-4-yl)-2-cyano-N-(1,3-thiazol-2-yl)prop-2-enamide]	111%
Cc1ccc(C=C(C#N)C(N)=O)c(C)c1 [9-M04, 2-cyano-3-(2,4-dimethylphenyl)prop-2-enamide]	115%
N#CC(=Cc1cccc2nccn12)C(=O)Nc1ccccc1 [9-M05, 2-cyano-3-{imidazo[1,2-a]pyridin-5-yl}-N-phenylprop-2-enamide]	125%
N#CC(=Cc1ccc(F)c(F)c1)C(=O)NC1CC1 [9-M06, 2-cyano-N-cyclopropyl-3-(3,4-difluorophenyl)prop-2-enamide]	109%
CC(C)NC(=O)C(C#N)=Cc1ccc(Cl)c(Cl)c1 [9-M07, 2-cyano-3-(3,4-dichlorophenyl)-N-(propan-2-yl)prop-2-enamide]	30.2%
CSc1ccc(C=C(C#N)C(=O)Nc2ccc(C(=O)O)cc2)cc1 [9-M08, 4-{2-cyano-3-[4-(methylsulfanyl)phenyl]prop-2-enamido}benzoic acid]	118%
N#CC(=Cc1ccsc1)C(=O)Nc1cccc2ccccc12 [9-M09, 2-cyano-N-(naphthalen-1-yl)-3-(thiophen-3-yl)prop-2-enamide]	120%
Cn1cc(C=C(C#N)C(=O)Nc2ccc(Oc3ccccc3)cc2)cn1 [9-M10, 2-cyano-3-(1-methyl-1H-pyrazol-4-yl)-N-(4-phenoxyphenyl)prop-2-enamide]	109%
CC(C)NC(=O)C(C#N)=Cc1ccc(C#N)cc1 [9-M11, 2-cyano-3-(4-cyanophenyl)-N-(propan-2-yl)prop-2-enamide]	123%
CCc1oc2ccccc2c1C=C(C#N)C(=O)NC1CC1 [9-M12, 2-cyano-N-cyclopropyl-3-(2-ethyl-1-benzofuran-3-yl)prop-2-enamide]	74.5%
COc1c(Cl)cc(Cl)cc1C=C(C#N)C(N)=O [9-M13, 2-cyano-3-(3,5-dichloro-2-methoxyphenyl)prop-2-enamide]	137%
N#CC(=Cc1cnc(-c2ccccc2)nc1)C(=O)NCc1ccco1 [9-M14, 2-cyano-N-[(furan-2-yl)methyl]-3-(2-phenylpyrimidin-5-yl)prop-2-enamide]	143%
N#CC(=Cc1ccccc1)C(=O)NC1CC1 [9-M15, 2-cyano-N-cyclopropyl-3-phenylprop-2-enamide]	128%
C=CCNC(=O)C(C#N)=Cc1cnn(-c2ccc(Cl)cc2)c1 [9-M16, 3-[1-(4-chlorophenyl)-1H-pyrazol-4-yl]-2-cyano-N-(prop-2-en-1-yl)prop-2-enamide]	115%
COCCNC(=O)C(C#N)=Cc1sccc1C [9-M17, 2-cyano-N-(2-methoxyethyl)-3-(3-methylthiophen-2-yl)prop-2-enamide]	131%
Cc1cnc(-c2cccc(NC(=O)C(C#N)=Cc3ccco3)c2)o1 [9-M18, 2-cyano-3-(furan-2-yl)-N-[3-(5-methyl-1,3-oxazol-2-yl)phenyl]prop-2-enamide]	116%
Cc1ccc(NC(=O)C(C#N)=Cc2ccsc2)c(C)c1 [9-M19, 2-cyano-N-(2,4-dimethylphenyl)-3-(thiophen-3-yl)prop-2-enamide]	102%
Cc1nn(C)c(C)c1C=C(C#N)C(=O)Nc1cccc(Cl)c1C [9-M20, N-(3-chloro-2-methylphenyl)-2-cyano-3-(1,3,5-trimethyl-1H-pyrazol-4-yl)prop-2-enamide]	111%
